In experiment [1] the target is Protein kinase C alpha type (Homo sapiens) (UniProt P17252). Kind of experiment: Inhibition of PKCalpha at 1 uM; values are per cent of control.
The target in experiment [2] is T1, Interleukin-1 receptor-associated kinase 4 (Homo sapiens) (UniProt Q9NWZ3).
T1 sequence (whole entry): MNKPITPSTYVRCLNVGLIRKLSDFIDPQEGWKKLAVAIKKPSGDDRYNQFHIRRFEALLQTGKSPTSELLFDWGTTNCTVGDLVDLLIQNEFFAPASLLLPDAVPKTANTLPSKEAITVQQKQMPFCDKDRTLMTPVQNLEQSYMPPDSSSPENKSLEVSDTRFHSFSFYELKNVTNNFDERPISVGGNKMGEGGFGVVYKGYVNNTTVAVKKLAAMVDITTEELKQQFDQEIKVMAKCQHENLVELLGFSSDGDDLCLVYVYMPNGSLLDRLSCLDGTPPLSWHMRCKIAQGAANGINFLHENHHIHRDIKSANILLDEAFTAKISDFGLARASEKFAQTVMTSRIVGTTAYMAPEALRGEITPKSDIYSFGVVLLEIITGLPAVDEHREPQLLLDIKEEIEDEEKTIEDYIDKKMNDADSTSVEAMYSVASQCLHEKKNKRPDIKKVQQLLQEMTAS
Kind of experiment: Inhibition of IRAK4 at 0.1 uM; values are per cent of control.

Experiment [3] concerns the target Tyrosine-protein kinase JAK2 (Homo sapiens) (UniProt O60674). Kind of experiment: Inhibition of JAK2 at 0.1 uM; values are per cent of control.
Experiment [4] deals with Serine/threonine-protein kinase PLK3 (Homo sapiens) (UniProt Q9H4B4). The experiment in a line: Inhibition of Plk3 at 0.1 uM; values are per cent of control.
Experiment [5] has as its target ALK tyrosine kinase receptor (Homo sapiens) (UniProt Q9UM73). The experiment in a line: Inhibition of ALK at 0.1 uM; values are per cent of control.
Experiment [6] has as its target Mitogen-activated protein kinase 8 (Homo sapiens) (UniProt P45983). The experiment in a line: Inhibition of JNK1a1 at 0.1 uM; values are per cent of control.
The target in experiment [7] is Vascular endothelial growth factor receptor 2 (Homo sapiens) (UniProt P35968). Kind of experiment: Inhibition of KDR at 1 uM; values are per cent of control.
Experiment [8] deals with 3-phosphoinositide-dependent protein kinase 1 (Homo sapiens) (UniProt O15530). The experiment in a line: Inhibition of PDK1 at 1 uM; values are per cent of control.
The target in experiment [9] is T2, Serine/threonine-protein kinase TBK1 (Homo sapiens) (UniProt Q9UHD2).
T2 sequence (whole entry): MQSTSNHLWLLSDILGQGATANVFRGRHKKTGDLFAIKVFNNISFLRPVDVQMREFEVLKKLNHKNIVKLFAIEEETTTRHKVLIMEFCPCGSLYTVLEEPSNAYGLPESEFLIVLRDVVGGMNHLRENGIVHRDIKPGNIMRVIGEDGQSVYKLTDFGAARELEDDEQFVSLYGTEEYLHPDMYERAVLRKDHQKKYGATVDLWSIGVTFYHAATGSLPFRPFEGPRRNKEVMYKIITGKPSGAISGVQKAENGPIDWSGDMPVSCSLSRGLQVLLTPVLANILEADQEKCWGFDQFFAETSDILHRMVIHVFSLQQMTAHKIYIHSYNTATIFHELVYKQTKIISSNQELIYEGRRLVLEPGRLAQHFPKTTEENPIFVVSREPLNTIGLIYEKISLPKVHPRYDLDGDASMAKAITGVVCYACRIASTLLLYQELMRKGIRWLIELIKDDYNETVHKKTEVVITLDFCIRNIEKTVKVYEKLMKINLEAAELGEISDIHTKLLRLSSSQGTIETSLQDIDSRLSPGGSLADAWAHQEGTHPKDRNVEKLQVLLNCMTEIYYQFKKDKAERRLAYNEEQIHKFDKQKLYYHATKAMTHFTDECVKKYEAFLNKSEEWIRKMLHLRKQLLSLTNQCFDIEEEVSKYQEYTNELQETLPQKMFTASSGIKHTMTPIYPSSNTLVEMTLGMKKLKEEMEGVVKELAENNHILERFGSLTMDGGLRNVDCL
Kind of experiment: Inhibition of TBK1 at 0.1 uM; values are per cent of control.

Experiment [10] concerns the target Platelet-derived growth factor receptor beta (Homo sapiens) (UniProt P09619). The experiment in a line: Inhibition of PDGFRbeta at 0.1 uM; values are per cent of control.
The target of experiment [11] is T3, Ephrin type-A receptor 8 (Homo sapiens) (UniProt P29322).
T3 sequence (whole entry): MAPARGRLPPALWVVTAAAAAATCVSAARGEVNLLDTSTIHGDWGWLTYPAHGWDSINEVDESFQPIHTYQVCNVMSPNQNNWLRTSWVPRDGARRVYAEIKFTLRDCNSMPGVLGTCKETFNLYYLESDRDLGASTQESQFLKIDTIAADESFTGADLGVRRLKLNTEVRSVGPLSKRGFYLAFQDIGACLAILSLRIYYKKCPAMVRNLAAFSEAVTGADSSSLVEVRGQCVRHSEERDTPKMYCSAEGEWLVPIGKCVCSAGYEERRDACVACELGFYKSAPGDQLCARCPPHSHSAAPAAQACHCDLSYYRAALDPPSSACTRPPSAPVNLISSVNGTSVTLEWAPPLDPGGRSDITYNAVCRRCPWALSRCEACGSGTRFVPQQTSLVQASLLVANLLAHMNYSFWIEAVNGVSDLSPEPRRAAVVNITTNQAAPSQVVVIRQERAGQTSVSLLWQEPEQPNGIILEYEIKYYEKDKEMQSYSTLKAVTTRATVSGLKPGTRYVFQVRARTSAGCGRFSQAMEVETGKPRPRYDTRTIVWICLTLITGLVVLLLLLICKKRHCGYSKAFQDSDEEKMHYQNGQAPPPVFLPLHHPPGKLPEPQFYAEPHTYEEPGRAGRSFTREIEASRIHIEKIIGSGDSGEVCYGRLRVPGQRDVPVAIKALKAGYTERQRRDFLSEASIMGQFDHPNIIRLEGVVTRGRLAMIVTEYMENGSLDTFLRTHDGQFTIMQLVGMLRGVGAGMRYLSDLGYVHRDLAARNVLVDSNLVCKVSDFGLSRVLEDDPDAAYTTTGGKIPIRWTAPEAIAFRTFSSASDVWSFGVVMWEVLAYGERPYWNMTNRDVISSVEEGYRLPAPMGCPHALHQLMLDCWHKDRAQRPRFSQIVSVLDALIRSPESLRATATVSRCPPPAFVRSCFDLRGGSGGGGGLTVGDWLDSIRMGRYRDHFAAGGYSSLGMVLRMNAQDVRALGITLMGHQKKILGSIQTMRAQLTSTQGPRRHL
Kind of experiment: Inhibition of EphA8 at 1 uM; values are per cent of control.

Chain of Platelet-derived growth factor receptor beta (Homo sapiens) (P09619 whole entry): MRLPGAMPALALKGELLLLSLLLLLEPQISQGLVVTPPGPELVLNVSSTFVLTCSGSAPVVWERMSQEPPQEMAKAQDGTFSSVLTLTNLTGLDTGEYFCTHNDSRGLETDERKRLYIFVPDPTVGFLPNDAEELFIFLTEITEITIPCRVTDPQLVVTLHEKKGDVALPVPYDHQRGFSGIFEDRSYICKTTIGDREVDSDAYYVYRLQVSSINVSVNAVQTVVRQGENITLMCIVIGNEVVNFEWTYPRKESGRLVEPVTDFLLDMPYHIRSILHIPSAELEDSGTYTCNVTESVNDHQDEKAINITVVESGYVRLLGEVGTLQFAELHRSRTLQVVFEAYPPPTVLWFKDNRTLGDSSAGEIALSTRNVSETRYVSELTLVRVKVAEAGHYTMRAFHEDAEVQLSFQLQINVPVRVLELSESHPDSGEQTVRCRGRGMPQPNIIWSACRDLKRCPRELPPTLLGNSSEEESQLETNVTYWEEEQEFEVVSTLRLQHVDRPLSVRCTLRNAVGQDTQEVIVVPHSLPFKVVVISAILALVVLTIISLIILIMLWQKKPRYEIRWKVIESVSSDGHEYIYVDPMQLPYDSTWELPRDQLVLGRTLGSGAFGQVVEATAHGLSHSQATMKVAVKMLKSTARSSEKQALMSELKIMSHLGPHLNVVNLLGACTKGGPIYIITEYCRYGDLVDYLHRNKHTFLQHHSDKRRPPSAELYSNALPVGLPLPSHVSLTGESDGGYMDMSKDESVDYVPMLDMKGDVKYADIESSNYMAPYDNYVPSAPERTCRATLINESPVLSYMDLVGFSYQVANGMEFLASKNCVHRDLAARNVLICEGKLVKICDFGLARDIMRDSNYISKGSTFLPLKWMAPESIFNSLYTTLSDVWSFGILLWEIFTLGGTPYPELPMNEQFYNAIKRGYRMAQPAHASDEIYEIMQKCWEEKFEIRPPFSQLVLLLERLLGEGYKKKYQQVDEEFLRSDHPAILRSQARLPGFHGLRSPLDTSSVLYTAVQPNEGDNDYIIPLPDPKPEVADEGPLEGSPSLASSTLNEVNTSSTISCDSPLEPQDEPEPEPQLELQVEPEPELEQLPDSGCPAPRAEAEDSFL
Chain of Tyrosine-protein kinase JAK2 (Homo sapiens) (O60674 whole entry): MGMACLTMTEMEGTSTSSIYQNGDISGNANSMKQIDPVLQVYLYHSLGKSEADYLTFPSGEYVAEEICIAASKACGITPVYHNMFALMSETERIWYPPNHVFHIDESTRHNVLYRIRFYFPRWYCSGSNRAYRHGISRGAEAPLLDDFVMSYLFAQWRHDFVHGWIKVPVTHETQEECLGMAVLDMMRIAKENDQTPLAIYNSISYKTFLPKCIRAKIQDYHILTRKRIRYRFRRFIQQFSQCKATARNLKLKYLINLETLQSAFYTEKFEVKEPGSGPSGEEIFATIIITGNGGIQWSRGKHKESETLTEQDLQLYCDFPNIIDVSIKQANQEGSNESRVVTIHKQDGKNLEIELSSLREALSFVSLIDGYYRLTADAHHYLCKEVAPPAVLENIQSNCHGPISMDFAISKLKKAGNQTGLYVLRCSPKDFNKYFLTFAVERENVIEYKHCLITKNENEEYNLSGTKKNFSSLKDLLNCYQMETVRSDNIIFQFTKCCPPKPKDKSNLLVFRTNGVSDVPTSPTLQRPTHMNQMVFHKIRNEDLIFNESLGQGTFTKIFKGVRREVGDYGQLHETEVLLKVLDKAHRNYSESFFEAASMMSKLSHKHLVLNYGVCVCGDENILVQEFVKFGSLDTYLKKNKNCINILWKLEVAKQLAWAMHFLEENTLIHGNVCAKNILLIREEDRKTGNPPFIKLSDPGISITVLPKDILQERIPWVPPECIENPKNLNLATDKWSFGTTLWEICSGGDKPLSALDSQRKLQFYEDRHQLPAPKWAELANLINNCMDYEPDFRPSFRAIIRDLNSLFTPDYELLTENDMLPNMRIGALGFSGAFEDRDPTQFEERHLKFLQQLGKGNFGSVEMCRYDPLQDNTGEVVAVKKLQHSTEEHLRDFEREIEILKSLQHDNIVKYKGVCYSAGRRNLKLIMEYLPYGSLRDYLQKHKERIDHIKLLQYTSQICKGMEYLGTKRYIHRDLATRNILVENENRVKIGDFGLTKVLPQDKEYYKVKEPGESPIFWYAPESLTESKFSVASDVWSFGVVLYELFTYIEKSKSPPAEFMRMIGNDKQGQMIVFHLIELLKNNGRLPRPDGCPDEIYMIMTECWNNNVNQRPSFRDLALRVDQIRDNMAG
Chain of Vascular endothelial growth factor receptor 2 (Homo sapiens) (P35968 whole entry): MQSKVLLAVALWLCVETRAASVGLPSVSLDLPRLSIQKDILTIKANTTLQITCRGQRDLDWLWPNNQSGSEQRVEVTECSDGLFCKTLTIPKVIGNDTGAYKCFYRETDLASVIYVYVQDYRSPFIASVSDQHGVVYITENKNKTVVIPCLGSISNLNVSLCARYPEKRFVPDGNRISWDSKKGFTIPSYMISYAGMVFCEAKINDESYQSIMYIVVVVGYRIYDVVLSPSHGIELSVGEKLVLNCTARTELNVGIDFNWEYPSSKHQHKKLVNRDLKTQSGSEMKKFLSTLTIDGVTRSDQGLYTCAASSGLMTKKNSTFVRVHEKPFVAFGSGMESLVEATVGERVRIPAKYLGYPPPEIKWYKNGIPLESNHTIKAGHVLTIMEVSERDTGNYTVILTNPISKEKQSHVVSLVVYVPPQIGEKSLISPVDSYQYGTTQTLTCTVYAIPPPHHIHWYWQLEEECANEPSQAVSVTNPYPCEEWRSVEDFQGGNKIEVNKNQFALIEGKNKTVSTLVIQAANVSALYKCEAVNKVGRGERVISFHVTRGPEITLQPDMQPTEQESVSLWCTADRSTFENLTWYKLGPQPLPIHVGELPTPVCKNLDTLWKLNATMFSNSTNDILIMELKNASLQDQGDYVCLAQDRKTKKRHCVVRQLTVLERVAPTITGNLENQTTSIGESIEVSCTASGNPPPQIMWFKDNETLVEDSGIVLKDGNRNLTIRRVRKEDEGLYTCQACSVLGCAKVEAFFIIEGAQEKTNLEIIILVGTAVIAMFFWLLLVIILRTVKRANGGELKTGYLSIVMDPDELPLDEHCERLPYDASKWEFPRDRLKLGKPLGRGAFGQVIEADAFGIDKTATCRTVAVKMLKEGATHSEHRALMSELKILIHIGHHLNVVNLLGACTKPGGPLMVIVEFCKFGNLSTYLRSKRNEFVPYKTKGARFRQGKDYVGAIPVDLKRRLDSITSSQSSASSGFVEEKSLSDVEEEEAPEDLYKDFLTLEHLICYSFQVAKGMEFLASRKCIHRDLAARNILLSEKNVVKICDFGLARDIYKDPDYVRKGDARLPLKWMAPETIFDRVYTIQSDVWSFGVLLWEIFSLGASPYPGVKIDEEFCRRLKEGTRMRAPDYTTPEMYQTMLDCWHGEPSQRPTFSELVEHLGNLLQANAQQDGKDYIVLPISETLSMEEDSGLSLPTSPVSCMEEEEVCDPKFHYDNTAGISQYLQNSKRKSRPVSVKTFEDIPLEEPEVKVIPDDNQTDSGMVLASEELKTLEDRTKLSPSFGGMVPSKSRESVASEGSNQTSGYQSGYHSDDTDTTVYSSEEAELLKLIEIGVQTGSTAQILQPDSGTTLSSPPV
Chain of Mitogen-activated protein kinase 8 (Homo sapiens) (P45983 whole entry): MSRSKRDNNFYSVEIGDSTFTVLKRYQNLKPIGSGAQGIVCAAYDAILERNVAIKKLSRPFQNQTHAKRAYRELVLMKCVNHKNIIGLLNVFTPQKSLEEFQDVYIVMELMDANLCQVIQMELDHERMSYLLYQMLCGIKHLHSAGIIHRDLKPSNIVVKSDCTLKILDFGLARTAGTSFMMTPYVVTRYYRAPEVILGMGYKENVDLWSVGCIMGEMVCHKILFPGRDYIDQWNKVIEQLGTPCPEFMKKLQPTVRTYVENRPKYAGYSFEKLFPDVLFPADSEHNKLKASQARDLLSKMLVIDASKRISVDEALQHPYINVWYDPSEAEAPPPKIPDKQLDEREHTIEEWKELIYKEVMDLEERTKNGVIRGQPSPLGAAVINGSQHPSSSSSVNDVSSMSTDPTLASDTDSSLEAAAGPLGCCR
Chain of 3-phosphoinositide-dependent protein kinase 1 (Homo sapiens) (O15530 whole entry, looked up): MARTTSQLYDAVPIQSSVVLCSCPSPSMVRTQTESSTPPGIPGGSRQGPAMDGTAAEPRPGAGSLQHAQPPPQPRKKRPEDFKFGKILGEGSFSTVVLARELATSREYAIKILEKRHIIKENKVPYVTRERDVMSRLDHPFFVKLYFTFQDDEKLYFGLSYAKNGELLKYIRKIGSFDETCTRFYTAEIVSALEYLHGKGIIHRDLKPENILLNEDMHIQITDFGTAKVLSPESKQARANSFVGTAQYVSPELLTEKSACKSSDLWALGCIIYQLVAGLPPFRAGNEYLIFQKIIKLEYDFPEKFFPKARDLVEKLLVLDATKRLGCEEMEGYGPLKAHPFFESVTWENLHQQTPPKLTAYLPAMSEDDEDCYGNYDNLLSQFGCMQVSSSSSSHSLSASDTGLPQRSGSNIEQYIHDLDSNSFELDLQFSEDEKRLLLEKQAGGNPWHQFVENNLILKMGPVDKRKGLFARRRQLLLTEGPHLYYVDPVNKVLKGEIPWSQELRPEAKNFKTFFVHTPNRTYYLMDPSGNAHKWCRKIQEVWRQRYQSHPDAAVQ

Take `Cc1ccc2cc(-c3n[nH]c4ccc(NC5CCNC5)cc34)[nH]c2c1` (configuration not stated): the residual activity in experiment [1] stood at 27%; in [2], 6%; in [3] it was 2%; in experiment [4], 106%; in experiment [5], 27%; in experiment [6], 101%. For the same molecule, the residual activity was found to be 5% in experiment [7]; 10% in [8]; 19% in [9]; 85% in experiment [10]; 57% in [11].
For `Cc1ccc2cc(-c3n[nH]c4ccc(NC5CCN(Cc6ccccc6)CC5)cc34)[nH]c2c1`, the residual activity in [1] is 36%; in experiment [2], 25%; in experiment [3], 16%; in experiment [4], 103%; in [5], 47%; in experiment [6] it was 83%. Also, the residual activity in experiment [7] was 21%; in experiment [8], 40%; in experiment [9], 53%; in experiment [10], 82%; in experiment [11], 58%.

(Values after ChEMBL document CHEMBL1681705, “Optimisation of ITK inhibitors through successive iterative design cycles” (Bioorg Med Chem Lett, 2011).)
